Assay results reported in PubChem BioAssay AID652125 (The Scripps Research Institute Molecular Screening Center, 2013).
Active and inactive are the calls of the source. The rule behind the calls is not given here.

Target: Perilipin-1 (Homo sapiens) + 1-acylglycerol-3-phosphate O-acyltransferase ABHD5 (Homo sapiens) (UniProt O60240+Q8WTS1)
Experiment: PubChem AID 652125
Conditions: biochemical ABHD5-PLIN1 interaction, luminescence

Row | SMILES | IC50
1 | CCCNC(=O)Nc1ccc2c(c1)N(CC)C(=O)c1ccccc1S2 | inactive
2 | CN(C)CCCN(C(=O)c1cc2ccccc2oc1=O)c1nc2ccc(Cl)cc2s1 | inactive
3 | O=C(c1nc(S(=O)(=O)Cc2ccccc2)ncc1Cl)N(Cc1ccccc1)Cc1ccco1 | 1.41 µM
4 | CN(C)CCCN(C(=O)C1CCCCC1)c1nc2cc(Br)ccc2s1 | inactive
5 | CCS(=O)(=O)c1ncc(Cl)c(C(=O)Nc2ccc(S(N)(=O)=O)cc2)n1 | 6.72 µM
6 | CN1C(=O)c2ccccc2Oc2ccc(NC(=O)c3cc4ccccc4[nH]3)cc21 | > 39.8 µM (inactive)
7 | Cc1ccc2cc(CC(=O)N3CCN(S(=O)(=O)c4ccc5c(c4)OCCO5)CC3)oc2c1 | inactive
8 | CS(=O)(=O)c1ncc(Cl)c(C(=O)Nc2ccc(C(F)(F)F)cc2)n1 | 1.42 µM
9 | CN1C(=O)c2ccccc2Sc2ccc(NC(=O)NCCCc3ccccc3)cc21 | 1.73 µM
10 | O=C(Nc1ccc2ccccc2c1)c1nc(S(=O)(=O)Cc2ccccc2)ncc1Cl | 2.2 µM
11 | CCCC(=O)Nc1ccc2c(c1)C(=O)N(C)c1ccccc1O2 | > 39.8 µM (inactive)
12 | CN1C(=O)c2ccccc2Sc2ccc(NC(=O)NCCc3ccccc3)cc21 | 3.57 µM
13 | CCc1ccc2c(CC(=O)N3CCN(S(=O)(=O)c4ccc5c(c4)OCCO5)CC3)coc2c1 | 2.54 µM
14 | Cc1ccc(CS(=O)(=O)c2ncc(Cl)c(C(=O)Nc3nnc(C(C)C)s3)n2)cc1 | > 39.8 µM (inactive)
15 | Cc1ccc(CS(=O)(=O)c2ncc(Cl)c(C(=O)Nc3cccc4ccccc34)n2)cc1 | 2.29 µM
16 | Cc1ccc(CS(=O)(=O)c2ncc(Cl)c(C(=O)N3CCN(C)CC3)n2)cc1 | 5.75 µM
17 | CN1C(=O)c2ccccc2Sc2ccc(NC(=O)NCCc3cccs3)cc21 | 4.31 µM
18 | CC(NC(=O)CN1CCN(S(=O)(=O)c2ccc3c(c2)OCCCO3)CC1)c1cc2ccccc2o1 (configuration not stated) | > 39.8 µM (inactive)
19 | Cc1ccc(CS(=O)(=O)c2ncc(Cl)c(C(=O)NCc3ccc4c(c3)OCO4)n2)cc1 | 3.2 µM
20 | CC(C)N1C(=O)c2ccccc2Oc2ccc(NC(=O)c3ccccc3)cc21 | > 39.8 µM (inactive)
21 | CCCS(=O)(=O)c1ccc(Cl)c(C(=O)Nc2ccc(C(=O)OCC)cc2)c1 | 5.32 µM
22 | NS(=O)(=O)c1ccc(NC(=O)c2nc(S(=O)(=O)Cc3ccccc3)ncc2Cl)cc1 | 4.22 µM
23 | Cc1ccc(CS(=O)(=O)c2ncc(Cl)c(C(=O)Nc3cccc(C(F)(F)F)c3)n2)cc1 | 2.11 µM
24 | CN1C(=O)c2ccccc2Oc2ccc(NC(=O)c3cccs3)cc21 | > 39.8 µM (inactive)
25 | CN(C)CCCN(C(=O)C1CCCCC1)c1nc2cc(Cl)ccc2s1 | > 39.8 µM (inactive)
26 | CCCCCNC(=O)Nc1ccc2c(c1)Sc1ccccc1C(=O)N2C | > 39.8 µM (inactive)
27 | CCS(=O)(=O)c1ncc(Cl)c(C(=O)Nc2ccc(C)cc2)n1 | 3.53 µM
28 | Cc1ccc(NC(=O)c2nc(S(C)(=O)=O)ncc2Cl)cc1 | 3.5 µM

Now from value to compound:

Row | IC50 | SMILES
29 | inactive | O=C(Cc1ccc2c(c1)CCCC2)N1CCN(S(=O)(=O)c2ccc3c(c2)OCCO3)CC1
30 | inactive | CN(C)CCCN(C(=O)CCc1ccccc1)c1nc2ccc(Cl)cc2s1
31 | inactive | CN(C)CCCN(C(=O)Cc1ccc(F)cc1)c1nc2ccc(Cl)cc2s1
32 | 3.74 µM | Cc1ccc2c(CC(=O)N3CCN(S(=O)(=O)c4ccc5c(c4)OCCCO5)CC3)coc2c1C
33 | > 39.8 µM (inactive) | O=C(CCc1c[nH]c2ccccc12)N1CCN(S(=O)(=O)c2ccc3c(c2)OCCO3)CC1
34 | > 39.8 µM (inactive) | COc1ccc(CC(=O)N2CCN(S(=O)(=O)c3ccc4c(c3)OCCCO4)CC2)cc1
35 | > 39.8 µM (inactive) | COc1ccc(OCC(=O)Nc2ccc3c(c2)N(C(C)C)C(=O)c2ccccc2O3)cc1
36 | > 39.8 µM (inactive) | O=C(C1COc2ccccc2O1)N1CCN(S(=O)(=O)c2ccc3c(c2)OCCO3)CC1 (configuration not stated)
37 | > 39.8 µM (inactive) | CCCCCCNC(=O)Nc1ccc2c(c1)Sc1ccccc1C(=O)N2C
38 | > 39.8 µM (inactive) | CCCC(=O)N(CCCN1CCOCC1)c1nc2ccc(Cl)cc2s1
39 | 2.5 µM | COc1ccc(CCNC(=O)c2nc(S(=O)(=O)Cc3ccc(F)cc3)ncc2Cl)cc1OC
40 | > 39.8 µM (inactive) | O=C(Cc1cccc(F)c1)N1CCN(S(=O)(=O)c2ccc3c(c2)OCCO3)CC1
41 | inactive | O=C(CCc1nc2ccccc2s1)N1CCN(S(=O)(=O)c2ccc3c(c2)OCCO3)CC1
42 | > 39.8 µM (inactive) | O=C(CCn1cnc2ccccc21)N1CCN(S(=O)(=O)c2ccc3c(c2)OCCO3)CC1
43 | inactive | CCCCCCCNC(=O)Nc1ccc2c(c1)Sc1ccccc1C(=O)N2C
44 | 3.43 µM | CN(C(=O)c1nc(S(C)(=O)=O)ncc1Cl)c1ccccc1
45 | > 39.8 µM (inactive) | COc1ccc(CC(=O)N2CCCN(S(=O)(=O)c3ccc(C)cc3)CC2)cc1OC
46 | 5.42 µM | CCCS(=O)(=O)c1ncc(Cl)c(C(=O)Nc2ccc(C(=O)OC)cc2)n1
47 | > 39.8 µM (inactive) | CCCC(=O)Nc1ccc2c(c1)C(=O)N(C)c1cc(C)ccc1O2
